In the assay the test system is Nucleic Acid. The assay is described as follows: DNA binding/cleaving affinity was determined; Active. The assay is classed as nucleic-acid assay.

2 substances from ChEMBL document CHEMBL1129012, “Similarities and differences in the DNA binding/cleaving specificities and mechanisms of [SalenMn(III)]+ and [TMPPMn(III)]5+” (Bioorg Med Chem Lett, 1996) can be followed below.

Activity calls are given as the source filed them. The rule behind the calls is not given here.

Take “[TMPPMn(III)] 5+ (TMPP=meso-tetrakis(4-N-methylpyridiniumyl)porphyrinato))”: the outcome was Active.

As to “Complex of [SalenMn(III)]+ (Salen=N,N'-ethylenebis(salicylideneaminato))”, the outcome was Active.
